Here are results for two compounds from PMC6234229, “The role of loops B and C in determining the potentiation of GABAA receptors by midazolam” (Pharmacology Research & Perspectives, 2018).

Data set [1] concerns the target T1, α2(H101R)β2γ2 GABAA receptor (Homo sapiens, UniProt P18507+P47869+P47870, H129R).
T1 construct: expressed in transfected cells; host or cells: HEK293T
Nature of the data set: GABA concentration-response assay, whole-cell patch clamp, HEK293T. The format is cell-based. Particulars: GABA Hill fit. From the text:
(§1) Human (Homo sapiens) GABAA subunits (α1‐6, β2, γ2s) were subcloned into pcDNA3.1+ vectors with a cytomegalovirus (CMV) promoter. The hβ2 and hα3 sequences were humanized rat (Rattus norvegicus) cDNA with amino acid substitutions made to match the human protein sequence. The α1‐3, α5, β2, and γ2s subunits were a generous gift from Neil L. Harrison (Columbia University Medical Center, NY). The α4 subunit was obtained from GenScript (Piscataway, NJ), and the α6 subunit was a generous gift from Robert L. McDonald (Vanderbilt University, TN). All point mutations (listed in Figure 1C) were introduced using the QuikChange Lightening site‐directed mutagenesis kit (Agilent Technologies, Santa Clara, CA) according to the manufacturer's instructions and were confirmed by sequencing (Eurofins MWG Operon, Louisville, KY).
(§2) Human embryonic kidney cells containing the SV40 T‐antigen (HEK293T) were acquired from American Type Culture Collection (ATCC®, Manassas, VA), catalogue number, CRL3216. HEK293T cells were maintained at 37°C and 5% CO2 in Eagle Minimum Essential Medium (MEM) supplemented with 5% fetal bovine serum (Atlanta Biologicals Inc., Flowery Branch, GA), 40 μM L‐glutamine, 100 U/mL penicillin and 0.1 mM streptomycin. Cells were passaged regularly when they reached 70% confluency using trypsin. Cells were not passaged more than 22 times. New cells were revived from frozen stocks at passage 2‐4. Cells used for in vitro electrophysiology experiments were grown on poly‐D‐lysine‐coated glass coverslips (No.2, VWR, Radnor, PA) and transfected with X‐tremeGENE (Roche Diagnostics, Indianapolis, IN) with the desired receptor subunit cDNAs at a 1:1:1 ratio to express αxβ2γ2s receptors (2 μg total cDNA) and with 0.5 μg green fluorescent protein (GFP) as an expression marker. The γ2s incorporation into receptors was tested with zinc inhibition assays regularly.24 Patch clamp experiments were performed on cells at 24‐72 hours post‐transfection. All experiments were performed at 22°C. Experiments consisted of at least five cells recorded per day from at least two transfections across 3‐4 days to control for cell health and transfection efficiency. At least three cells expressing wild‐type receptors were recorded on days that mutant receptors were tested to provide a time‐matched expression control. All reagents were purchased from Sigma‐Aldrich (St. Louis, MO) unless otherwise stated.
(§3) Extracellular solution contained 161 mM NaCl, 3 mM KCl, 1 mM MgCl2, 1.5 mM CaCl2, 10 mM HEPES, and 6 mM D‐glucose, adjusted to pH 7.4 with NaOH (320‐330 mOsm). […] The perfusion system was controlled by protocols written in pClamp 9 (Molecular Devices, LLC., Sunnyvale, CA). Whole‐cell currents were recorded at ‐60 mV, filtered at 100 Hz and sampled at 200 Hz with a MultiClamp 700B amplifier (Molecular Devices, LLC) and DigiData 1322A (Molecular Devices, LLC) digitizer. […] Cells were recorded with the midazolam protocol no more than two times to avoid desensitization and incomplete washout or irreversible modulation.
(§4) Recordings were analyzed using MATLAB (Math Works, Inc., Natick, MA). […] The maximum peak current, EC50 and Hill coefficient were estimated for assays from each cell. When Hill parameters are estimated from whole‐cell recordings, the changes in the parameters across receptor conditions can be ascribed to the following changes in receptor physiology. Changes in maximum current can be due to changes in the single‐channel conductance or the rate of desensitization. Changes in cell surface receptor expression can cause minor changes in maximum current, but are unlikely to occur in the time course of our experimental protocol. […] More often minor changes in the Hill coefficient are attributed to the altered homogeneity in the receptor population expressed by the HEK293T cell. For example, a shallower Hill coefficient could be caused by a shift in the population of receptors from mostly αβγ receptors to a combination of both αβ and αβγ receptors.

For data set [2], the target named is T2, α2(T162P)β2γ2 GABAA receptor (Homo sapiens, UniProt P18507+P47869+P47870, T190P).
T2 construct: expressed in transfected cells; host or cells: HEK293T
The data set is described as above. The data set is classed as cell-based. The settings on record: GABA Hill fit.
Description: as §1, §2, §3, §4

The target in data set [3] is T3, α6(N204I)β2γ2 GABAA receptor (Homo sapiens, UniProt P18507+P47870+Q16445, N223I).
T3 construct: expressed in transfected cells; host or cells: HEK293T
Described as above. The format is cell-based. The settings on record: GABA Hill fit.
Description: as §1, §2, §3, §4

Data set [4] deals with T4, α4(R100H)β2γ2 GABAA receptor (Homo sapiens, UniProt P18507+P47870+P48169, R135H).
T4 construct: expressed in transfected cells; host or cells: HEK293T
Described as above. The settings on record: GABA Hill fit. The data set is classed as cell-based.
Description: as §1, §2, §3, §4

Data set [5] addresses T5, α4(I204S)β2γ2 GABAA receptor (Homo sapiens, UniProt P18507+P47870+P48169, I239S).
T5 construct: expressed in transfected cells; host or cells: HEK293T
The description is as above. The data set is classed as cell-based. The settings on record: GABA Hill fit.
Description: as §1, §2, §3, §4

A further data set concerns the target T6, α5β2γ2 GABAA receptor (Homo sapiens, UniProt P18507+P31644+P47870).
T6 construct: expressed in transfected cells; host or cells: HEK293T
The description is as above. The data set is classed as cell-based. Particulars: GABA Hill fit.
Description: as §1, §2, §3, §4

The conditions of data set [6]: cited from earlier work.
Data set [7] has as its target α6(P161T)β2γ2 GABAA receptor (Homo sapiens, UniProt P18507+P47870+Q16445, P180T). Nature of the data set: Midazolam potentiation of EC10 GABA currents, whole-cell patch clamp, HEK293T. Also noted: expressed in transfected cells; host or cells: HEK293T. Particulars: for Midazolam potentiation (%): α6(P161T). The data set is classed as cell-based.
Description: as §1, §2, §3, §4
In general terms: The patch-clamp technique gives a direct electrical read-out from membranes.

Data set [8] concerns the target α6(R100H)β2γ2 GABAA receptor (Homo sapiens, UniProt P18507+P47870+Q16445, R119H). The data set is described as above. The data set is classed as cell-based. Also noted: expressed in transfected cells; host or cells: HEK293T.
Description: as §1, §2, §3, §4

Data set [9] deals with T3, α6(N204I)β2γ2 GABAA receptor. The description is as above. The format is cell-based.

Where “and” joins values, the source holds several entries; their conditions need not be identical. Equal values may be shown once. Read-outs that look alike come from different tables or passages of the source.

Sequence of α6(P161T)β2γ2 GABAA receptor (Q16445 20-453 P180T): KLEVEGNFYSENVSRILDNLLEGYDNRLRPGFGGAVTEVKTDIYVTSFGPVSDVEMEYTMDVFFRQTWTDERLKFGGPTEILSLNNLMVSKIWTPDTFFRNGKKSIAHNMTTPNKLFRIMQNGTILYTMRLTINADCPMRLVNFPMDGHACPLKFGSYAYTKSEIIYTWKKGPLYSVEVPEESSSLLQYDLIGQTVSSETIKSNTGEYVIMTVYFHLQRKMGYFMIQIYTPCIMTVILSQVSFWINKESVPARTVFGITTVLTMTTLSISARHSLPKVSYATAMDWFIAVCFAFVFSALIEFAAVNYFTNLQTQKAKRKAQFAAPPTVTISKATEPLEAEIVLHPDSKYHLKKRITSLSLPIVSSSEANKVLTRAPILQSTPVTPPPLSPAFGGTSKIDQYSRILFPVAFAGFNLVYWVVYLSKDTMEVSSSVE
Sequence of α6(P161T)β2γ2 GABAA receptor (P47870 26-474 isoform P47870-1 limits assumed, stated change not applied): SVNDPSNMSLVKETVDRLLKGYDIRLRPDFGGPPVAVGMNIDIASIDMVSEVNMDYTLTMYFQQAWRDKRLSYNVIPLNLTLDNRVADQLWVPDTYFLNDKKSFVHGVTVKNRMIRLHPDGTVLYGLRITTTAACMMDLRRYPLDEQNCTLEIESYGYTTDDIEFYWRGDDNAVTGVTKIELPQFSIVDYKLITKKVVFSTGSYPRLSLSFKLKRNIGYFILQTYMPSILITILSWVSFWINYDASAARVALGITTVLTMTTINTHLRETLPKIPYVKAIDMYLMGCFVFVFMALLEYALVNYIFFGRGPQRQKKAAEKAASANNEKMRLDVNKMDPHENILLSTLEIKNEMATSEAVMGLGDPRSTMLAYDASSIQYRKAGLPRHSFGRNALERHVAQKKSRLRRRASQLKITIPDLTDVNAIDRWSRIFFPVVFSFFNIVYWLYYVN
Sequence of α6(P161T)β2γ2 GABAA receptor (P18507 40-467 isoform P18507-1 limits assumed, stated change not applied): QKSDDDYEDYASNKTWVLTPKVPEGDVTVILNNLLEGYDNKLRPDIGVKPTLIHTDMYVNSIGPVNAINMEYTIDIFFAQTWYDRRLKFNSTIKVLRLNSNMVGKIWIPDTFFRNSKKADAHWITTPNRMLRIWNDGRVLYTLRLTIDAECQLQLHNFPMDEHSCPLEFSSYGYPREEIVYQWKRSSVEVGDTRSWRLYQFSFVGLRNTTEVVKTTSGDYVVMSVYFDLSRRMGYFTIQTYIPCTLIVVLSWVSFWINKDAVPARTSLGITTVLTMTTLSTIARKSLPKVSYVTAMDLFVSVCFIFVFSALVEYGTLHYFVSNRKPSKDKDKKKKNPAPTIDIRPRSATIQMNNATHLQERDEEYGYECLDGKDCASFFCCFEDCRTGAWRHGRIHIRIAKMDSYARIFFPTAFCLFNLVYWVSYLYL
Sequence of α6(R100H)β2γ2 GABAA receptor (Q16445 20-453 R119H): as the sequence (Q16445 20-453 P180T) above, with R100H, T161P counted along it
Sequence of α6(R100H)β2γ2 GABAA receptor (P47870 26-474 isoform P47870-1 limits assumed, stated change not applied): as the sequence (P47870 26-474 isoform P47870-1 limits assumed, stated change not applied) above
Sequence of α6(R100H)β2γ2 GABAA receptor (P18507 40-467 isoform P18507-1 limits assumed, stated change not applied): as the sequence (P18507 40-467 isoform P18507-1 limits assumed, stated change not applied) above
T3 sequence (Q16445 20-453 N223I): as the sequence (Q16445 20-453 P180T) above, with T161P, N204I counted along it
T3 sequence (P47870 26-474 isoform P47870-1 limits assumed, stated change not applied): as the sequence (P47870 26-474 isoform P47870-1 limits assumed, stated change not applied) above
T3 sequence (P18507 40-467 isoform P18507-1 limits assumed, stated change not applied): as the sequence (P18507 40-467 isoform P18507-1 limits assumed, stated change not applied) above

Take `NCCCC(=O)O` [GABA, γ‐aminobutyric acid]: the Hill coefficient (commonly a measure of the steepness of the concentration-response curve) in data set [1] was found to be 1.443 ± 0.092; in [2] it was 1.494 ± 0.101; in [4], 1.215 ± 0.079; in data set [5], 1.180 ± 0.072; on α5β2γ2 GABAA receptor, 1.547 ± 0.123. Besides, the “Max Current (pA)” value in data set [1] is -3186 ± 390.8 pA; in data set [2] it was -1765 ± 246.0 pA; in [3], -3549 ± 408.6 pA; in data set [4], -3049 ± 378.6 pA; in data set [5], -3424 ± 394.5 pA; at α5β2γ2 GABAA receptor, -5115 ± 315.9 pA.

In the case of `Cc1ncc2n1-c1ccc(Cl)cc1C(c1ccccc1F)=NC2` [midazolam], the “therapeutically relevant range of midazolam measured from plasma” value in [6] (anesthetized state) is 350 ng/mL and 966 nM; in [6] (postoperative drowsiness), 75 ng/mL and 207 nM. Moreover, the “Midazolam potentiation (%)” value in [7] (10 nM MDZ + EC10 GABA) is reported as 7.52 ± 3.56%; in [7] (50 nM MDZ + EC10 GABA), 13.89 ± 3.99%; in [7] (100 nM MDZ + EC10 GABA), 24.46 ± 3.86%; in data set [7] (500 nM MDZ + EC10 GABA), 17.25 ± 3.52%; in [7] (1000 nM MDZ + EC10 GABA), 16.98 ± 4.08%; in data set [8] (10 nM MDZ + EC10 GABA, α6(R100H)), 14.39 ± 8.03%. Besides, the “Midazolam potentiation (%)” value turned out to be 45.91 ± 12.95% in data set [8] (50 nM MDZ + EC10 GABA, α6(R100H)); 71.31 ± 17.31% in data set [8] (100 nM MDZ + EC10 GABA, α6(R100H)); 85.96 ± 19.92% in data set [8] (500 nM MDZ + EC10 GABA, α6(R100H)); 79.13 ± 19.87% in data set [8] (1000 nM MDZ + EC10 GABA, α6(R100H)); 11.98 ± 4.42% in [9] (10 nM MDZ + EC10 GABA); 19.07 ± 5.84% in data set [9] (50 nM MDZ + EC10 GABA). Moreover, the “Midazolam potentiation (%)” value in data set [9] (100 nM MDZ + EC10 GABA) came out at 25.21 ± 7.32%; in data set [9] (500 nM MDZ + EC10 GABA), 25.85 ± 6.62%; in data set [9] (1000 nM MDZ + EC10 GABA) it was 19.31 ± 7.32%. The “responsiveness to midazolam potentiation” value is “failed to confer midazolam responsiveness” in data set [7] (α6(P161T)β2γ2) and “failed to convey any notable midazolam potentiation” in [9]. For the same compound, in data set [8], the EC50 (as a rule, the midpoint of the concentration-response curve) was 41.9 ± 6.02 nM. Also, in [8] (α6(R100H), Hill fit, midazolam 10-1000 nM + EC10 GABA), the “Max potentiation (%)” value was 93.27 ± 22.84%. Further, in [8] (α6(R100H), midazolam Hill fit), the Hill coefficient turned out to be 2.310 ± 0.56.
